{
  "source": "patent US6399654B1",
  "about": "“Biflavanoids and derivatives thereof as antiviral agents” (priority 1995, dated 2002)",
  "key": {"[1]": {"test_system": "Influenza A (H1N1) Texas/36/91", "experiment": "microbe, parasite or virus in culture", "format": "cell-based, influenza A virus", "conditions": "Influenza A virus, MDCK; Influenza A (H1N1) Texas/36/91; read-out: CPE Inhibition EC50"}, "[2]": {"test_system": "Influenza A (H1N1) Texas/36/91", "experiment": "microbe, parasite or virus in culture", "format": "cell-based, influenza A virus", "conditions": "Influenza A virus, MDCK; Influenza A (H1N1) Texas/36/91; read-out: Neutral Red EC50"}, "[3]": {"test_system": "Influenza A (H3N2) Beijing/32/92", "experiment": "microbe, parasite or virus in culture", "format": "cell-based, influenza A virus", "conditions": "Influenza A virus, MDCK; Influenza A (H3N2) Beijing/32/92; read-out: CPE Inhibition EC50"}, "[4]": {"test_system": "Influenza A (H3N2) Beijing/32/92", "experiment": "microbe, parasite or virus in culture", "format": "cell-based, influenza A virus", "conditions": "Influenza A virus, MDCK; Influenza A (H3N2) Beijing/32/92; read-out: Neutral Red EC50"}, "[5]": {"test_system": "Influenza B Panama/45/90", "experiment": "microbe, parasite or virus in culture", "format": "cell-based", "conditions": "Influenza B virus, MDCK; Influenza B Panama/45/90; read-out: CPE Inhibition EC50"}, "[6]": {"test_system": "Measles Virus", "experiment": "microbe, parasite or virus in culture", "format": "cell-based"}, "[7]": {"test_system": "Measles Virus", "experiment": "Measles virus neutral red dye uptake in BSC-1 cells", "format": "cell-based", "conditions": "Measles morbillivirus, BSC-1"}, "[8]": {"test_system": "Adenovirus Type 5", "experiment": "microbe, parasite or virus in culture", "format": "cell-based", "conditions": "Human mastadenovirus C, A549, read-out: CPE Inhibition EC50"}, "[9]": {"test_system": "Adenovirus Type 5", "experiment": "Adenovirus type 5 neutral red dye uptake in A549 cells", "format": "cell-based", "conditions": "Human mastadenovirus C, A549; Adenovirus Type 5; read-out: Neutral Red EC50"}, "[10]": {"test_system": "Parainfluenza Type 3 Virus", "experiment": "organism not typed", "format": "cell-based", "conditions": "MA104; Parainfluenza Type 3 Virus; read-out: CPI Inhibition EC50"}, "[11]": {"test_system": "Parainfluenza Type 3 Virus", "experiment": "organism not typed", "format": "cell-based", "conditions": "MA104, read-out: Neutral Red EC50"}, "[12]": {"test_system": "Respiratory Syncytial Virus", "experiment": "microbe, parasite or virus in culture", "format": "cell-based", "conditions": "human respiratory syncytial virus, MA104; read-out: CPE Inhibition EC50"}, "[13]": {"test_system": "Respiratory Syncytial Virus", "experiment": "microbe, parasite or virus in culture", "format": "cell-based", "conditions": "human respiratory syncytial virus, MA104; read-out: Neutral Red EC50"}, "[14]": {"biological_target": "T1, HIV-1 RT (Human immunodeficiency virus type 1 group M subtype B, UniProt P03366)", "T1 construct": "made in house; host or cells: Escherichia coli", "experiment": "Anti-HIV-1 RT assay (recombinant enzyme)", "format": "biochemical"}, "[15]": {"experiment": "in vitro", "conditions": "dog"}, "[16]": {"experiment": "in vitro", "conditions": "dog, Neutral Red IC50 (cytotoxic)"}, "[17]": {"experiment": "in vitro", "conditions": "African green monkey"}, "[18]": {"experiment": "in vitro", "conditions": "human"}, "[19]": {"experiment": "in vitro", "conditions": "African green monkey", "remark": "listed apart in the source"}, "[20]": {"test_system": "HCMV", "experiment": "HCMV CPE inhibition in HFF cells"}, "[21]": {"test_system": "HSV-1", "experiment": "HSV-1 CPE inhibition in HFF cells"}, "[22]": {"test_system": "HSV-2", "experiment": "HSV-2 CPE inhibition in HFF cells"}, "[23]": {"test_system": "VZV", "experiment": "VZV plaque reduction assay in HFF cells"}, "[24]": {"experiment": "Cytotoxicity by neutral red dye uptake, A549 cells", "conditions": "human"}, "[25]": {"experiment": "Cytotoxicity by neutral red dye uptake, BSC-1 cells", "conditions": "African green monkey"}, "[26]": {"experiment": "Cytotoxicity by neutral red dye uptake, MA-104 cells", "conditions": "African green monkey, Neutral Red IC50 (cytotoxic)"}, "[27]": {"experiment": "Cytotoxicity (CC50) in HFF cells in the herpes virus tests", "conditions": "human"}, "[28]": {"test_system": "HFF Cells", "experiment": "Cytotoxicity (CC50) in HFF cells in the herpes virus tests", "conditions": "HFF Cells, HSV-2 test"}, "[29]": {"test_system": "Hepatitis B Virus (HBV)", "experiment": "Inhibition of HBV replication in 2.2.15 cells, extracellular (virion) HBV DNA;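 note: extracellular virion HBV DNA in culture medium measured by slot blot hybridization with a 32P-labeled HBV probe, quantified against HBV DNA standards, after 9 days of daily dosing, compared with day 0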", "conditions": "for anti-HBV activity (in words): 2.2.15 cells"}},
  "note": "Like-named read-outs stand apart in the source and are kept apart here.",
  "data": [
    {"smiles": "O=C1CC(c2ccc(O)cc2)Oc2cc(O)c(-c3c(O)cc(O)c4c3OC(c3ccc(O)cc3)CC4=O)c(O)c21", "note": "(centres unmarked) [Rhusflavanone (9), rhusflavanone]", "values": [
      {"measurement": "EC50", "setting": "[1]", "value": "> 10", "unit": "µg/mL"},
      {"measurement": "EC50", "setting": "[2]", "value": 24, "unit": "µg/mL"},
      {"measurement": "EC50", "setting": "[3]", "value": "> 32", "unit": "µg/mL"},
      {"measurement": "EC50", "setting": "[4]", "value": 31, "unit": "µg/mL"},
      {"measurement": "EC50", "setting": "[5]", "value": 4.1, "unit": "µg/mL"},
      {"measurement": "activity against measles virus (in words)", "setting": "[6]", "value": "some slight activity"},
      {"measurement": "EC50", "setting": "[6]; Measles morbillivirus, BSC-1, Measles Virus, read-out: CPI Inhibition EC50", "value": 14, "unit": "µg/mL"},
      {"measurement": "EC50", "setting": "[7]", "value": 5, "unit": "µg/mL"},
      {"measurement": "EC50", "setting": "[8]", "value": 56, "unit": "µg/mL"},
      {"measurement": "EC50", "setting": "[9]", "value": 33, "unit": "µg/mL"},
      {"measurement": "EC50", "setting": "[10]", "value": "> 100", "unit": "µg/mL"},
      {"measurement": "EC50", "setting": "[11]", "value": 85, "unit": "µg/mL"},
      {"measurement": "EC50", "setting": "[12]", "value": "> 10", "unit": "µg/mL"},
      {"measurement": "EC50", "setting": "[13]", "value": 27, "unit": "µg/mL"},
      {"measurement": "activity against HIV-1 RT (in words)", "setting": "[14]", "value": "completely inactive"},
      {"measurement": "inhibition at 200 µg/mL", "setting": "[14]; read-out: Anti-HIV-1 RT % Inhibition at 200 μg/ml", "value": 14.1, "unit": "%"},
      {"measurement": "Anti-HIV-1 RT IC50", "setting": "[14]; values in parentheses or in words", "value": "Inactive"},
      {"measurement": "IC50", "setting": "[15]; CPE Inhibition IC50 (50% cell inhibitory (cytotoxic) concentration), Influenza A (H1N1) test", "value": 8.2, "unit": "µg/mL"},
      {"measurement": "IC50", "setting": "[15]; CPE Inhibition IC50 (cytotoxic), Influenza A (H3N2) test", "value": 24, "unit": "µg/mL"},
      {"measurement": "IC50", "setting": "[15]; CPE Inhibition IC50 (cytotoxic), Influenza B test", "value": 38, "unit": "µg/mL"},
      {"measurement": "IC50", "setting": "[16]; Influenza A (H1N1) test", "value": 26, "unit": "µg/mL"},
      {"measurement": "IC50", "setting": "[16]; Influenza A (H3N2) test", "value": 31, "unit": "µg/mL"},
      {"measurement": "IC50", "setting": "[17]", "value": 21, "unit": "µg/mL"},
      {"measurement": "IC50", "setting": "[18]", "value": 47, "unit": "µg/mL"},
      {"measurement": "IC50", "setting": "[19]; CPE Inhibition IC50 (cytotoxic), Respiratory Syncytial Virus test", "value": 18, "unit": "µg/mL"},
      {"measurement": "IC50", "setting": "[19]; CPI Inhibition IC50 (cytotoxic), Parainfluenza Type 3 Virus test", "value": 47, "unit": "µg/mL"},
      {"measurement": "HCMV SI (CC50/EC50)", "setting": "[20]; HFF Cells", "value": "<3.4"},
      {"measurement": "EC50", "setting": "[20]; Human betaherpesvirus 5, HFF, read-out: HCMV CPE Inhibition EC50", "value": "> 4", "unit": "µg/mL"},
      {"measurement": "HSV-1 SI (CC50/EC50)", "setting": "[21]; HFF Cells", "value": 0},
      {"measurement": "EC50", "setting": "[21]; Human alphaherpesvirus 1, HFF, read-out: HSV-1 CPE Inhibition EC50", "value": "> 100", "unit": "µg/mL"},
      {"measurement": "activity against HSV-2 (in words)", "setting": "[22]", "value": "active"},
      {"measurement": "HSV-2 SI (CC50/EC50)", "setting": "[22]; HFF Cells", "value": ">6.4"},
      {"measurement": "EC50", "setting": "[22]; Human alphaherpesvirus 2, HFF, read-out: HSV-2 CPE Inhibition EC50", "value": 15.7, "unit": "µg/mL"},
      {"measurement": "VZV SI (CC50/EC50)", "setting": "[23]; HFF Cells", "value": "<4"},
      {"measurement": "EC50", "setting": "[23]; Human alphaherpesvirus 3, HFF, read-out: VZV Plaque Reduction EC50", "value": "> 4", "unit": "µg/mL"},
      {"measurement": "IC50", "setting": "[24]", "value": 15, "unit": "µg/mL"},
      {"measurement": "IC50", "setting": "[25]", "value": 40, "unit": "µg/mL"},
      {"measurement": "IC50", "setting": "[26]; Parainfluenza Type 3 Virus test", "value": 30, "unit": "µg/mL"},
      {"measurement": "IC50", "setting": "[26]; Respiratory Syncytial Virus test", "value": 20, "unit": "µg/mL"},
      {"measurement": "CC50 at 3 days", "setting": "[27]", "value": "> 100", "unit": "µg/mL"},
      {"measurement": "CC50 at 10 days", "setting": "[27]", "value": 16, "unit": "µg/mL"},
      {"measurement": "CC50 at 14 days", "setting": "[27]", "value": 13.7, "unit": "µg/mL"},
      {"measurement": "HSV-2 CPE Inhibition CC50", "setting": "[28]", "value": ">100", "unit": "µg/mL"},
      {"measurement": "anti-HBV activity (in words)", "setting": "[29]; listed as rhusflavanone", "value": "inactive"},
      {"measurement": "anti-HBV activity (in words)", "setting": "[29]; listed as rhusflavanone (9)", "value": "little or no anti-HBV activity"},
      {"measurement": "EC50", "setting": "[29]; Hepatitis B virus, 216 h, read-out: EC50 (50% effective dose), HBV Virion, 2.2.15 cells, extracellular (virion) HBV DNA, 9 days treatment", "value": "> 100", "unit": "µM"},
      {"measurement": "EC90", "setting": "[29]; Hepatitis B virus, 216 h, read-out: EC90 (90% effective dose), HBV Virion, 2.2.15 cells, extracellular (virion) HBV DNA, 9 days treatment", "value": "> 100", "unit": "µM"}
    ]}
  ]
}
